Data on 3 compounds can be found in patent US20100184809A1, “Heterocyclic FXR Binding Compounds” (PHENEX PHARMACEUTICALS AG, priority 2006, published 2010).

Series [1] can be described thus: Aqueous solubility assay, Protocol B, shake-flask method. In kind it is physicochemical. The following applies: aqueous buffer, 10 mM PBS buffer pH 7.4, 1% MeOH, room temperature, read-out: Aqueous solubility pH 7.4 (μM) (±standard deviation), shake-flask method. The protocol: Protocol B, shake-flask method:
Sample preparation: Sample and standard solution preparation is performed by mixing equal volumes of acetonitrile containing the internal standard (1 μM final concentration) with sample and calibration standard solutions (100 μl). After vigorously shaking (10 seconds) the samples are centrifuged (6000 g) for 5 minutes at 20° C. Aliquots of the particle-free supernatants are transferred to 200 μl sample vials and subsequently subjected to LC-MS/MS. Assay procedure: Test concentration was 100 μM in 10 mM PBS buffer pH 7.4 with a final MeOH concentration of 1%. The volume of the incubation solution was 500 μl. Depending on each compound's solubility in MeOH, the stock concentration and the incubation concentration was adapted. The test solutions in quadruplicates were shaken at 300 rpm over a 20 hours period at room temperature, followed by centrifugation at 20000 g for 30 minutes to separate the solid phase. 100 μl of particle free sample are added to 100 μl acetonitrile containing the internal standard. The aqueous solubility of the compounds was determined by measuring the concentration of the PBS buffer supernatant by HPLC-MS/MS.

A short description of series [2]: Rat microsomal stability assay. It is filed as in vitro ADME. To be noted: liver microsomes, 37° C., NADPH, 45 minute, read-out: Rat liver microsome clearance. On the procedure:
Compound stability towards rat liver microsomes was determined as follows: The microsomes are incubated with the test compound at 37° C. in the presence of the co-factor, NADPH, which initiates the reaction. The reaction is terminated by the addition of methanol. Following centrifugation, the supernatant is analysed on the LC-MS/MS. The disappearance of test compound is monitored over a 45 minute time period. The In peak area ratio (compound peak area/internal standard peak area) is plotted against time and the gradient of the line determined. Finally, Intrinsic clearance CLint is computed by the following equations: elimination rate konstant (k)=−gradient; t1/2 (min)=0.693/k; V (μl/mg)=volume of incubation (μl)/protein in incubation (mg); CLint (μl/min/mg protein)=V*0.693/t1/2.
(In general: Liver microsomes are a subcellular fraction often used to study metabolism.)

A short description of series [3]: Mouse microsomal stability assay. It is filed as in vitro ADME. To be noted: pH 7.4; mouse liver microsomes, 37° C. The protocol: In vitro assays were performed to evaluate the metabolic stability of test items in liver microsomes originating from mouse. Preparation of working standards of test items: Working solutions were prepared for each calibration level by appropriate dilution of the corresponding stock solution, depending on each compound's solubility in acetonitrile or acetonitrile/water. Calibration standards were prepared by spiking 196 μl standard matrix with 4 μl of the corresponding working solution. The standard matrix consists of 0.15 mg/ml of microsomal protein in phosphate buffer (100 mM pH 7.4), the final standard solutions contain 2% acetonitrile. The samples and standard solutions were extracted with ethyl acetate, isolation of the compounds was performed by addition of 600 μl ethyl acetate containing the internal standard (0.1 μM) to 200 μl sample and calibration standard. After vigorously shaking (10 minutes) and centrifugation (5000 g) the aqueous phase was separated by freezing in an acetone/dry ice bath and the organic phase is evaporated to dryness using a vacuum centrifuge. Samples were reconstituted in 200 μl acetonitrile/water mix (1:1 v/v) and subsequently subjected to LC-MS/MS. The incubation solution (180 μl) consisted of 90 μl of a microsomal suspension of 0.33 mg/ml of protein in phosphate buffer 100 mM pH 7.4 and 90 μl NADP-regenerating system. The reaction was initiated by the addition of 20 μl of test compound (in 20% acetonitrile) to the preincubated microsomes/buffer mix at 37° C. 200 μl samples were removed from the incubation after 0, 5, 10, and 30 minutes and processed for ethyl acetate extraction as described above. Negative controls using boiled microsomes (boiling water bath, 25 minutes) without regenerating system were run in parallel. The amount of compound in the samples is expressed as percentage of remaining compound compared to time point zero (=100%). These percentages were plotted against the corresponding time points. Intrinsic clearance (CLint) and half-life (t1/2) estimates were determined using the rate of parent disappearance and following formula (1) and (2). (1) CLint=(−k)×V×fu. (2) t1/2=In2/−k. Where CLint=intrinsic clearance [μl/min/mg protein], t1/2=half life [min], k=slope from the linear regression of log [test compound] versus time plot [1/min]. V=6666.7; fu=unbound fraction in the blood. Applying this protocol gave microsomal stabilities for examples and reference compounds as listed below in Table 9: […]

In brackets after ≈: the same amount, converted by molar mass.

`CC(C)c1onc(-c2c(Cl)cccc2Cl)c1COc1ccc(/C=C/c2cccc(C(=O)O)c2)c(Cl)c1` [Compound B, reference compound]: the solubility – broadly, the concentration that dissolves in the medium under given conditions – at 20 h in series [1] amounted to 17.7 µM (≈ 9.61 µg/mL). Also, the microsomal CLint in series [2] amounted to 310 µL/min/mg.
For the compound `CC(C)c1onc(-c2c(Cl)cccc2Cl)c1COc1ccc(N(C)C(=O)c2ccc(C(=O)O)cc2)c(C(F)(F)F)n1` [Example 7, N-{6-[3-(2,6-dichloro-phenyl)-5-isopropyl-isoxazol-4-ylmethoxy]-2-trifluoromethyl-pyridin-3-yl}-N-methyl-terephthalamic acid], the microsomal CLint in series [2] is 45 µL/min/mg.
Regarding `CC(C)c1onc(-c2c(Cl)cccc2Cl)c1COc1ccc(N(C)Cc2ccc(C(=O)O)cc2)c(C(F)(F)F)n1` [Example 28, 4(((6-((3-(2,6-Dichlorophenyl)-5-isopropylisoxazol-4-yl)methoxy)-2-(trifluoromethyl)pyridin-3-yl)(methyl)amino)methyl)benzoic acid], the melting point (as a rule, the temperature of the solid-liquid transition) was in the range of 96.1 to 97.1 °C. Moreover, in series [3], the half-life – broadly, the time needed for the level to fall by half in the phase considered – was 38 min and the microsomal CLint was determined as 120 µL/min/mg.
